Test system: not given
Assay: not given
Conditions: not given

Row | SMILES | melting point
1 | CSc1nc(N)c(C#N)c(-c2ccccc2)c1C#N [Example 76] | 297 °C
2 | CSc1nc(N)c(C#N)c(-c2ccco2)c1C#N [Example 84] | 229 to 230 °C
3 | CCc1c(C#N)c(N)nc(OC)c1C#N [Example 149] | 160 to 161 °C
4 | COc1nc(N)c(C#N)c(C2CCOC2)c1C#N (centres unmarked) [Example 163] | 205 to 206 °C
5 | COc1nc(N)c(C#N)c(-c2ccc[nH]2)c1C#N [Example 169] | 198 to 199 °C
6 | CCOc1nc(N)c(C#N)c(-c2ccccc2)c1C#N [Example 179] | 233 to 234 °C
7 | N#Cc1c(N)nc(SCc2ccccc2)c(C#N)c1-c1ccccc1 [Example 217] | 212 to 213 °C
8 | COc1nc(OC)c(C#N)c(-c2ccccc2)c1C#N [Example 358] | 157 to 159 °C
9 | CNc1nc(OC)c(C#N)c(-c2ccccc2)c1C#N [Example 360] | 216 to 218 °C
10 | COc1nc(N(C)C)c(C#N)c(-c2ccccc2)c1C#N [Example 361] | 179 to 180 °C
11 | COc1nc(NCCO)c(C#N)c(-c2ccccc2)c1C#N [Example 362, 2-[(2-hydroxyethyl)amino]-6-methoxy-4-phenylpyridine-3,5-dicarbonitrile] | 153 to 155 °C
12 | COC(=O)CNc1nc(OC)c(C#N)c(-c2ccccc2)c1C#N [Example 363, methyl [(3,5-dicyano-6-methoxy-4-phenylpyridin-2-yl)amino]acetate] | 140 to 141 °C
13 | COc1nc(SC)c(C#N)c(-c2ccccc2)c1C#N [Example 371] | 168 to 170 °C
14 | N#Cc1c(N)nc(Br)c(C#N)c1-c1cccs1 [Example 373] | 312 °C
15 | N#Cc1c(N)nc(OCc2ccccc2)c(C#N)c1-c1cccs1 [Example 378] | 186 to 187 °C
16 | COc1nc(NC(=O)COCc2ccccc2)c(C#N)c(-c2ccccc2F)c1C#N [Example 399, 2-benzyloxy-N-[3,5-dicyano-4-(2-fluorophenyl)-6-methoxypyridin-2-yl]acetamide] | 164 to 166 °C
17 | CCC(=O)Nc1nc(OC)c(C#N)c(-c2ccccc2F)c1C#N [Example 401, N-[3,5-dicyano-4-(2-fluorophenyl)-6-methoxypyridin-2-yl]propionamide] | 168 to 169 °C
18 | COc1nc(NC(=O)CCc2ccccc2)c(C#N)c(-c2ccccc2F)c1C#N [Example 402, N-[3,5-dicyano-4-(2-fluorophenyl)-6-methoxypyridin-2-yl]-3-phenylpropionamide] | 183 to 184 °C
19 | COCCC(=O)Nc1nc(OC)c(C#N)c(-c2ccccc2F)c1C#N [Example 404, N-[3,5-dicyano-4-(2-fluorophenyl)-6-methoxypyridin-2-yl]-3-methoxypropionamide] | 115 to 116 °C
20 | COc1nc(NC(=O)C(C)C)c(C#N)c(-c2ccccc2F)c1C#N [Example 405, N-[3,5-dicyano-4-(2-fluorophenyl)-6-methoxypyridin-2-yl]isobutyramide] | 193 to 194 °C
21 | COc1nc(NC(=O)c2ccccn2)c(C#N)c(-c2ccccc2F)c1C#N [Example 412, N-[3,5-dicyano-4-(2-fluorophenyl)-6-methoxypyridin-2-yl]pyridine-2-carboxamide] | 219 to 220 °C
22 | COc1nc(NC(=O)c2cccs2)c(C#N)c(-c2ccccc2F)c1C#N [Example 414, N-[3,5-dicyano-4-(2-fluorophenyl)-6-methoxypyridin-2-yl]thiophene-2-carboxamide] | 208 to 209 °C
23 | N#Cc1cc(C#N)c(Oc2ccccc2)nc1N [Example 426] | 235 to 237 °C
24 | N#Cc1c(N)nc(O)c(C#N)c1Cc1ccccc1 [Example 434] | 314 to 315 °C
25 | N#Cc1c(N)nc(OCc2cccnc2)c(C#N)c1Cc1ccccc1 [Example 436, 2-amino-4-benzyl-6-(pyridin-3-ylmethoxy)pyridine-3,5-dicarbonitrile] | 204 to 205 °C
26 | N#Cc1c(N)nc(SCc2ccccc2)c(C#N)c1Cc1ccccc1 [Example 437] | 188 to 189 °C
27 | N#Cc1c(N)nc(SCc2cccnc2)c(C#N)c1Cc1ccccc1 [Example 438, 2-amino-4-benzyl-6-[(pyridin-3-ylmethyl)sulfanyl]pyridine-3,5-dicarbonitrile] | 259 to 260 °C

Other lines, results leading:

Row | melting point | SMILES
28 | 246 to 247 °C | CSc1nc(N)c(C#N)c(C)c1C#N [Example 75]
29 | 201 to 202 °C | COc1nc(N)c(C#N)c(-c2cc(F)ccc2F)c1C#N [Example 126, 2-amino-4-(2,5-difluorophenyl)-6-methoxypyridine-3,5-dicarbonitrile]
30 | > 300 °C | COc1nc(N)c(C#N)c(-c2c[nH]c3ccccc23)c1C#N [Example 170]
31 | > 300 °C | N#Cc1c(N)nc(Br)c(C#N)c1-c1ccccc1 [Example 178]
32 | 202 °C | N#Cc1c(N)nc(Oc2ccccc2)c(C#N)c1-c1ccccc1 [Example 194]
33 | 256 to 258 °C | N#Cc1c(N)nc(-n2ccnc2)c(C#N)c1-c1ccccc1 [Example 211]
34 | 301 °C | N#Cc1c(N)nc(Cl)c(C#N)c1-c1cccs1 [Example 372]
35 | 208 to 209 °C | N#Cc1c(N)nc(SCc2ccccc2)c(C#N)c1-c1cccs1 [Example 386]
36 | 151 to 153 °C | COc1nc(NC(=O)COC(C)=O)c(C#N)c(-c2ccccc2F)c1C#N [Example 397, [3,5-dicyano-4-(2-fluorophenyl)-6-methoxypyridin-2-ylcarbamoyl]methyl acetate]
37 | 205 to 206 °C | COc1nc(NC(=O)COc2ccccc2)c(C#N)c(-c2ccccc2F)c1C#N [Example 398, N-[3,5-dicyano-4-(2-fluorophenyl)-6-methoxypyridin-2-yl]-2-phenoxyacetamide]
38 | 162 to 164 °C | COc1nc(NC(=O)C(C)(C)C)c(C#N)c(-c2ccccc2F)c1C#N [Example 406, N-[3,5-dicyano-4-(2-fluorophenyl)-6-methoxypyridin-2-yl]-2,2-dimethylpropio namide]
39 | 139 to 141 °C | CCCCCC(=O)Nc1nc(OC)c(C#N)c(-c2ccccc2F)c1C#N [Example 407, N-[3,5-dicyano-4-(2-fluorophenyl)-6-methoxypyridin-2-yl]hexanamide]
40 | 227 to 230 °C | COc1nc(NC(=O)c2ccc3ccccc3c2)c(C#N)c(-c2ccccc2F)c1C#N [Example 411, N-[3,5-dicyano-4-(2-fluorophenyl)-6-methoxypyridin-2-yl]naphthalene-2-carbo xamide]
41 | 222 to 223 °C | COc1nc(NC(=O)c2ccco2)c(C#N)c(-c2ccccc2F)c1C#N [Example 415, N-[3,5-dicyano-4-(2-fluorophenyl)-6-methoxypyridin-2-yl]furan-2-carboxamide]
42 | 206 to 208 °C | COc1nc(NC(=O)Cc2ccccc2)c(C#N)c(-c2ccccc2F)c1C#N [Example 416, N-[3,5-dicyano-4-(2-fluorophenyl)-6-methoxypyridin-2-yl]-2-phenylacetamide]
43 | 140 to 144 °C | COc1nc(NC(=O)NCCO)c(C#N)c(-c2ccccc2F)c1C#N [Example 420, 1-[3,5-dicyano-4-(2-fluorophenyl)-6-methoxypyridin-2-yl]-3-(2-hydroxyethyl)ur ea]

Test system: rat's removed bladder specimen
Assay: Inhibition of the contraction of rat's removed bladder specimen (15 mM K+-induced contraction, organ bath)
Conditions: SD male rat bladder strips, dose giving 50% inhibition of contraction area
Text: Since the inhibitory action is blocked by a known maxi-K channel blocker charybdotoxin or iberiotoxin, it is confirmed that the effect of the compounds of the invention is based on the maxi-K channel opening effect. Thus, the pharmacological effect of the compounds of the invention was confirmed according to the following method.
<Inhibitory Effect in Construction of the Rat's Removed Bladder Specimen>
In this experiment, SD-family male rats (9-13 weeks of age) were used. The rats were killed by bleeding under ether anesthesia, and the bladders were removed. The removed bladders were immediately washed in a Kiebs-Henseleit solution (NaCl 118.4, KCl 4.7, KH2PO4 1.2, MgSO4 1.2, CaCl2 2.5, NaHCO3 25.0, glucose 11.1 [mM], aeration with 95% O2/5% CO2 mixed gas) kept at 37° C., and prepared into rectangular specimens of about 10 mm long and about 2 mm width on a Petri dish filled with the Klebs-Henseleit solution. The respective specimens were ligated at the both ends with a cotton string via a wire hook, and the one end was fixed to an FD pick-up and the other hung down vertically in an organ bath filled with the Klebs-Henseleit solution. After completion of the operation, 1.0 g of static tensile stress was given to the respective slices, which were then allowed to stand for 1.5-2 hours to stabilize. Then, a KCl solution was added to the organ bath so that the final K^+ ion concentration become 15 mM to induce the contraction. Thereafter, the specimens were further allowed to stand for about 1-2 hours to stabilize, and the test was started. The contraction of the smooth muscle was measured isometrically through the FD pick-up, and the output signal was amplified through a strain stress amplifier to continuously record a chart on a pen recorder. At the same time, the respective contraction wave forms to be analyzed were recorded on a personal computer as magnetic data through an analogue/digital signal converter, and the under-area of the contraction was calculated by analytical software. The contraction 5 minutes immediately after the start of the test was regarded as the value before administration of the drug to be tested (100% reference value). The drug to be tested was added into the bath at intervals of 30 minutes, and the contraction for 5 minutes, respectively 25 minutes after the administration, was analyzed. The drug to be tested was administered at a common ratio of 3 or 10 accumulatively. The effect of the drug to be tested was represented by the dose by which 50% inhibition was attained to the value before the administration (100% reference value). Additionally, the wave form of contraction at the highest dose of the drug was recorded, and then a maxi-K channel selective blocker, charybdotoxin or iberiotoxin, was administered so that the final concentration in the organ bath became 100 nM. Thus, the effect of the drug was observed whether it was blocked or not.

Row | SMILES | IC50
44 | COc1nc(N)c(C#N)c(-c2cccs2)c1C#N [Example 1, 2-amino-6-methoxy-4-(2-thienyl)pyridine-3,5-dicarbo-nitrile] | 150 nM
